pIC50: −log10 of the molar value. Where two headings read alike, the source gives them in different places.
Key:
[1] = test system: stenosis at the level of a coronary artery; experiment: Effort trial on a moving belt in dogs with coronary artery stenosis; format: in vivo, dog; settings: dose 0.018 μmole/kg i.v.; maximum effort at 12 Km/h for 1 minute
Protocol: (b) Effort trial on a moving belt. In this test, a group of at least four dogs is used (equipped with intracardiac electrodes), the dogs having an organic stenosis at the level of a coronary artery. This stenosis causes imbalance between the demand and supply of oxygen when the animal is required to make an effort. This imbalance is expressed on the electrocardiogram by an increase in the ST-segment.
In the trial, the dog runs at a speed of 12 km/h on a moving belt having a slope of 15°. This maximum effort is required for one minute. During the trial, the increase in the ST-segment is recorded, together with the natural increase in the pulse rate. The experiment is repeated at least four times, and the mean of the values obtained is taken as reference (100%) for the group of animals. The animals are then allowed to rest for a minimum of 24 hours before being subjected to a new effort trial under the influence of the compound to be studied.
The compound to be studied is administered slowly (over 1 minute) by intravenous injection 5 minutes before the new effort trial. In the course of the latter, the variations in the same parameters are recorded.

male NMRI mice = experiment: Toxicity, Irwin's test (lethal dose); format: in vivo; settings: intraperitoneal
Protocol: 5. Toxicity. The toxicity of the compounds according to the present invention has been determined in male NMRI mice by means of Irwin's test (S. IRWIN, Psychopharmacologia, 13, (1968), 222-257).
Progressive doses of the test compound are administered intraperitoneally to groups of three mice until the lethal dose is reached (dose causing the death of two out of three animals within 48 hours). In Table IX below, the lethal dose in mg/kg found for the compounds of the invention is given. It can be seen from this Table that the compounds of the invention are not very toxic.

[2] = target: T1, presynaptic α2 -adrenergic receptors (Cavia porcellus, UniProt Q60474); experiment: Inhibition of the contraction of electrically stimulated guinea-pig ileum
T1 construct: Stimulation of a guinea-pig ileum; from tissue; host or cells: guinea-pig ileum longitudinal muscle strips
T1 sequence (Q60474 1-464): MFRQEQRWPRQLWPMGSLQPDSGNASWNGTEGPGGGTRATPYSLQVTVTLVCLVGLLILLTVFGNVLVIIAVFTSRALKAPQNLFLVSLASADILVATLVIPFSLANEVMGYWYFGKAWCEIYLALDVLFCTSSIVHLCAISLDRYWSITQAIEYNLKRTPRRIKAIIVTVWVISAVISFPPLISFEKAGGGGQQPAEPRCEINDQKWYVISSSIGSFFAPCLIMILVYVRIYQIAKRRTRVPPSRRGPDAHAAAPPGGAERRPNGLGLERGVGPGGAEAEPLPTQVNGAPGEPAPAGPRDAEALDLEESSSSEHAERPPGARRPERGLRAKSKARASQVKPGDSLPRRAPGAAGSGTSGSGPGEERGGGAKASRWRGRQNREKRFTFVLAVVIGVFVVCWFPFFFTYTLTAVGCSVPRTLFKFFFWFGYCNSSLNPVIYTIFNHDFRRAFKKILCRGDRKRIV
From the text: (c) Stimulation of a guinea-pig ileum. Longitudinal muscles strips attached to an isometric strain gauge are suspended in Tyrode's solution and are stretched under a tension of 1 g (G. M. DREW. Brit. J. Pharmacol. 64, (1978), 293-300; M. ANDREJAK et al., Naunyn-Schmiedelberg's Arch. Pharmacol. 314, (1980), 83-87).
Electrical stimulation of the parasympathetic nerves associated with the ileum fragments causes a contraction of the muscle. This contraction is reduced in the presence of a presynaptic α2 -agonist and the magnitude by which the contraction is reduced depends on the concentration of the agonist used. This effect is antagonized by the simultaneous presence of an α2 -antagonist such as α-yohimbine. The compounds to be studied have been tested at increasing concentrations ranging from 10^-10 to 10^-3 mole/l.
The concentration (IC50 in mole/l) that reduces by 50% the intensity of the contraction of the muscle is determined.
In the presence of α-yohimbine at a concentration of 10^-6 mole/l, the concentration of the compounds A or B, for example, that is required for reducing muscle contraction intensity by 50% is higher, and becomes greater than 10^-6 mole/l, which gives additional confirmation that the compounds of the invention act really at the level of the presynaptic α2 -adrenergic receptors.

For Cl.NC(=O)c1cccc(Cc2c[nH]cn2)c1O [A, 2-hydroxyl-3-[(1H-imidazol-4-yl)methyl]-benzamide hydrochloride], the “reduction in ST-segment” value [1] was 74%, the “reduction in the pulse rate” value [1] was 3 beats/min and the “lethal dose (death of two out of three animals within 48 hours)” value (male NMRI mice) was 760 mg/kg. The pIC50 ([2]; guinea-pig ileum, electrical stimulation, read-out: IC50 (reduces by 50% the intensity of the contraction of the muscle)) was 8.15 and the pIC50 ([2]; in the presence of 10^-6 mole/l of α-yohimbine, read-out: concentration required for reducing muscle contraction intensity by 50%) was under 6.00.

Reference: patent US4923865A, “Substituted 1-(1H-imidazol-4-yl)alkyl-benzamides as anti-ischemics and as alpha-2-adrenergic receptor agonists” (U C B Societe Anonyme, priority 1988, dated 1990)
